Counter-ions that a name gives are not always drawn.
Molecular target: T1, CCR-3 receptor (Homo sapiens, UniProt P51677)
T1 construct: expressed in transfected cells; host or cells: L1.2 cells (murine pre-B lymphoma line)
T1 sequence (P51677 1-355): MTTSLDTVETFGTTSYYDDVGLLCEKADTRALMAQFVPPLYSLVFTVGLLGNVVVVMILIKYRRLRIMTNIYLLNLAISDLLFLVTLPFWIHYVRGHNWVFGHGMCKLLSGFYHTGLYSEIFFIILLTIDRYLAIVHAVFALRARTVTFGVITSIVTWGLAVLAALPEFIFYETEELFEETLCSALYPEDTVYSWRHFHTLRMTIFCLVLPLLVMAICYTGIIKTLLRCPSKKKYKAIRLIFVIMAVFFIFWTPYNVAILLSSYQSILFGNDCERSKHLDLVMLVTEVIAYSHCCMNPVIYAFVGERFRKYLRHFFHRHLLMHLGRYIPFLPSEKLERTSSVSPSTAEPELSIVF
Test: CCR-3 Receptor Binding Assay, inhibition of 125I eotaxin binding to CCR-3 L1.2 transfectant cells
Conditions: concentration required to reduce 125I-eotaxin binding to the CCR-3 L1.2 transfected cells by 50%
Procedure: The CCR-3 antagonistic activity of the compounds of the invention was determined by their ability to inhibit the binding of ^125I eotaxin to CCR-3 L1.2 transfectant cells ((see Ponath, P. D. et al., J. Exp. Med., Vol. 183, 2437-2448, (1996)).
The assay was performed in Costar 96-well polypropylene round bottom plates. Test compounds were dissolved in DMSO and then diluted with binding buffer (50 mM HEPES, 1 mM CaCl2, 5 mM MgCl2, 0.5% bovine serum albumin (BSA), 0.02% sodium azide, pH 7.24) such that the final DMSO concentration was 2%. 25 μl of the test solution or only buffer with DMSO (control samples) was added to each well, followed by the addition of 25 μl of ^125I-eotaxin ([…]) (NEX314, New England Nuclear, Boston, Mass.) and 1.5×10^5 of the CCR-3 L1.2 transfected cells in 25 μl binding buffer. The final reaction volume was 75 μl.
After incubating the reaction mixture for 1 h at room temperature, the reaction was terminated by filtering the reaction mixture through polyethylenimine treated Packard Unifilter GF/C filter plate (Packard, Chicago, Ill.). The filters were washed four times with ice cold wash buffer containing 10 mm HEPES and 0.5M sodium chloride (pH 7.2) and dried at 65° C. for approximately 10 min. 25 μl/well of Microscint-20™ scintillation fluid (Packard) was added and the radioactivity retained on the filters was determined by using the Packard TopCount™.
The IC50 value (concentration of test compound required to reduce ^125I-eotaxin binding to the CCR-3 L1.2 transfected cells by 50%) for some of the compounds of the invention was: […]

IC50 | Compound
415 nM | CC(C)C(CN1CCN(Cc2ccc(Cl)c(Cl)c2)CC1)NC(=O)c1ccccn1.Cl.Cl (racemic) [compound 7, N-{1(RS)-[4-(3,4-Dichlorobenzyl)piperazin-1-ylmethyl]-2-methylpropyl}picolinamide dihydrochloride salt]
1460 nM | CC(C)C(CN1CCN(Cc2ccc(Cl)c(Cl)c2)CC1)NC(=O)Cc1cccs1 (racemic) [compound 25, N-{1(RS)-[4-(3,4-Dichlorobenzyl)piperazin-1-ylmethyl]-2-methylpropyl}-2-(thiophene-2-yl)acetamide]
1500 nM | CC(C)C(CN1CCN(Cc2ccc(Cl)cc2)CC1)NS(=O)(=O)c1ccc(Cl)cc1 (racemic) [compound 118]
1330 nM | CC(C)C(CN1CCN(Cc2ccc(Cl)c(Cl)c2)CC1)NS(=O)(=O)c1ccc(F)cc1 (stereo in doubt) [compound 117, N-{1(R)-[4-(3,4-Dichlorobenzyl)piperazin-1-ylmethyl]-2-methylpropyl}-4-flourobenzenesulfonamide]
240 nM | Cc1ccc(C(=O)N[C@H](CN2CCN(Cc3ccc(Cl)c(Cl)c3)CC2)C(C)C)cc1 [compound 8, N-{1(S)-[4-(3,4-Dichlorobenzyl)piperazin-1-ylmethyl]-2-methylpropyl}-4-methylbenzamide dihydrochloride salt]
945 nM | CC(C)[C@@H](CN1CCN(Cc2ccc(Cl)c(Cl)c2)CC1)NC(=O)c1ccc2ccccc2c1 [compound 19, N-{1(S)-[4-(3,4-Dichlorobenzyl)piperazin-1-ylmethyl]-2-methylpropyl}-2-naphthaleneamide]
952 nM | CC(C)C(CN1CCN(Cc2ccc(Cl)c(Cl)c2)CC1)NC(=O)c1ccncc1 (stereo not shown) [compound 20]
1330 nM | CCCC(CN1CCN(Cc2ccc(Cl)c(Cl)c2)CC1)NC(=O)c1ccc(C)cc1 (stereo not shown) [compound 23]
1370 nM | CC(C)C(CN1CCN(Cc2ccc(Cl)c(Cl)c2)CC1)NC(=O)c1ccc2ccccc2n1 (stereo not shown) [compound 24]
1760 nM | CC(C)(C)[C@@H](CN1CCC(Cc2ccc(Cl)c(Cl)c2)CC1)NC(=O)c1ccc(Cl)cc1 [compound 61]
5030 nM | Cc1ccc(C(=O)N2CCC[C@@H]2CN2CCN(Cc3ccc(Cl)c(Cl)c3)CC2)cc1 [compound 78, {1-(4-Methylbenzoyl)-2(R)-[4-(3,4-dichlorobenzyl)piperazin-1-ylmethyl]}pyrrolidine Dihydrochloride Salt]
1160 nM | CCOc1ccccc1NC(=O)NC(CN1CCN(Cc2ccc(Cl)c(Cl)c2)CC1)C(C)C (stereo not shown) [compound 86]
1470 nM | CC(C)C(CN1CCN(Cc2ccc(Cl)c(Cl)c2)CC1)NC(=O)Nc1cccc(Br)c1 (stereo not shown) [compound 88]
1680 nM | CC(C)C(CN1CCN(Cc2ccc(Cl)cc2)CC1)NC(=O)Nc1ccccc1 (stereo not shown) [compound 89]
1890 nM | CC(=O)c1cccc(NC(=O)NC(CN2CCN(Cc3ccc(Cl)c(Cl)c3)CC2)C(C)C)c1 (stereo not shown) [compound 91]
2360 nM | COc1cccc(NC(=O)N[C@H](CN2CCC(Cc3ccc(Cl)c(Cl)c3)CC2)C(C)(C)C)c1 [compound 99]
2470 nM | Cc1ccc(NC(=O)N[C@H](CN2CCC(Cc3ccc(Cl)c(Cl)c3)CC2)C(C)(C)C)cc1 [compound 100]
2840 nM | CC(C)C(CN1CCN(Cc2ccc(Cl)cc2)CC1)NC(=S)Nc1cccc2ccccc12 (stereo not shown) [compound 109]
3050 nM | COc1ccccc1NC(=S)NC(CN1CCN(Cc2ccc(Cl)c(Cl)c2)CC1)C(C)C (stereo not shown) [compound 110]
3520 nM | CC(C)C(CN1CCN(Cc2ccc(Cl)cc2)CC1)NS(=O)(=O)c1ccc(C(F)(F)F)cc1 (stereo not shown) [compound 121]

Compound | IC50
1-{1(RS)-[4-(4-Chlorobenzyl)piperazin-1-yl]-2-methylpropyl}-3-(3-methylphenyl)-2-thiourea [compound 107] | 1140 nM

Tested on: not given
Test: not given
Conditions: not given

melting point | Compound
238 to 242 °C | Cc1ccc(C(=O)N[C@H](CN2CCN(Cc3ccc(Cl)c(Cl)c3)CC2)C(C)(C)C)cc1.Cl.Cl
222.5 to 223 °C | COc1ccc(C(=O)N[C@H](CN2CCN(Cc3ccc(Cl)c(Cl)c3)CC2)C(C)C)cc1.Cl.Cl
229 to 229.6 °C | Cc1ccc(C(=O)N[C@H](CN2CCN(Cc3ccc(Cl)c(Cl)c3)CC2)C(C)C)cc1 (as salt: HCl) [compound 8, N-{1(S)-[4-(3,4-Dichlorobenzyl)piperazin-1-ylmethyl]-2-methylpropyl}-4-methylbenzamide dihydrochloride salt]
150 to 153 °C | CC(C)C(CN1CCN(Cc2ccc(Cl)c(Cl)c2)CC1)NC(=O)c1ccncc1 (stereo not shown) (as salt: HCl) [compound 20]
199.5 to 203.5 °C | CCCC(CN1CCN(Cc2ccc(Cl)c(Cl)c2)CC1)NC(=O)c1ccc(C)cc1 (stereo not shown) (as salt: HCl) [compound 23]
87 to 90 °C | Cc1ccc(C(=O)N[C@H](CN2CCC(Cc3ccc(Cl)c(Cl)c3)CC2)C(C)C)cc1 (as salt: HCl) [compound 57, N-{1-(S)-[4-(3,4-Dichlorobenzyl)piperidin-1-ylmethyl]-2-methylpropyl}-4-methylbenzamide]
45 to 47.5 °C | Cc1ccc(C(=O)N[C@H](CN2CCC(Cc3ccc(Cl)c(Cl)c3)CC2)C(C)C)s1 (as salt: HCl) [compound 71, N-{1-(R)-[4-(Dichlorobenzyl)piperidin-1-ylmethyl]-2-methylpropyl}-5-methylthiophene-2-carboxamide Hydrochloride Salt]
249.6 to 250.1 °C | Cc1ccc(C(=O)N2CCC[C@@H]2CN2CCN(Cc3ccc(Cl)c(Cl)c3)CC2)cc1 (as salt: HCl) [compound 78, {1-(4-Methylbenzoyl)-2(R)-[4-(3,4-dichlorobenzyl)piperazin-1-ylmethyl]}pyrrolidine Dihydrochloride Salt]
97.5 to 99.5 °C | COc1cccc(NC(=O)N[C@H](CN2CCN(Cc3ccc(Cl)c(Cl)c3)CC2)C(C)C)c1 (as salt: HCl) [compound 98, 1-{1(S)-[4-(3,4-Dichlorobenzyl)piperazin-1-ylmethyl]-2-methylpropyl}-3-(3-methoxyphenyl)urea]
109.5 to 111 °C | Cc1ccc(NC(=O)N[C@H](CN2CCC(Cc3ccc(Cl)c(Cl)c3)CC2)C(C)(C)C)cc1 (as salt: HCl) [compound 100]
233.9 to 235.5 °C | Cc1ccc(C(=O)NC(CC2CCN(Cc3ccc(Cl)c(Cl)c3)CC2)C(C)C)cc1 (racemic) (as salt: hydrochloride) [compound 133]
226.2 to 229.9 °C | CC(C)C(CN1CCN(Cc2ccc(Cl)c(Cl)c2)CC1)NC(=O)c1ccccn1.Cl.Cl (racemic) [compound 7, N-{1(RS)-[4-(3,4-Dichlorobenzyl)piperazin-1-ylmethyl]-2-methylpropyl}picolinamide dihydrochloride salt]
161.4 to 161.8 °C | COc1cccc(NC(=O)NC(C(C)C)C2CCN(Cc3ccc(Cl)c(Cl)c3)CC2)c1 (racemic) [compound 132, 1-{1(RS)-[1-(3,4-Dichlorobenzyl)piperidin-4-yl]-2-methylpropyl}-3-(3-methoxyphenyl)urea]
149 to 155 °C | O=C(N[C@@H](CN1CCN(Cc2ccc(Cl)c(Cl)c2)CC1)C1CCCCC1)c1ccc(Cl)cc1 [compound 35, N-{1(R)-cyclohexyl-2-[4-(3,4-dichlorobenzyl)piperazin-1-yl]ethyl}-4-chloro-benzamide]
63 to 68 °C | CC(C)(C)[C@@H](CN1CCC(Cc2ccc(Cl)c(Cl)c2)CC1)NC(=O)c1ccc(Cl)cc1 [compound 61]
75.1 to 80.3 °C | COc1cccc(NC(=O)N[C@H](CN2CCC(Cc3ccc(Cl)c(Cl)c3)CC2)C(C)(C)C)c1 [compound 99]

Source: patent US6770650B2, “Cyclic amine derivatives-CCR-3 receptor antagonists” (Syntex (U.S.A.) LLC, priority 1997, dated 2004)
